Measurements from paper PMC7591920, “A protein tertiary structure mimetic modulator of the Hippo signalling pathway” (Nature Communications, 2020).
Bridge positions count the residues as written; N and C are the ends. Square brackets hold non-standard residues; d marks the D form. Peptide text beside a SMILES is read from it. Orn = NCCC[C@H](N)C(=O)O; Dab = NCC[C@H](N)C(=O)O

What was measured:
mTEAD4 = biological target: T1, mTEAD4 (Mus musculus, UniProt Q62296); experiment: SPR binding to immobilised mTEAD4; details: mTEAD4 amine-coupled on CM5, multi-cycle, steady-state fit 1:1 model, 10 mM HEPES 150 mM NaCl 0.05% Tween-20 pH 7.4, 0.3% DMSO, 20 °C, Fig. 1 values n = 1 replicate
T1 construct: Mouse TEAD4(210–427) cDNA fused with a 6x His-tag and a 3C protease cleavage site; 6x His-tag; 3C protease cleavage site; made in house; host or cells: E. coli BL21 DE3 RIL(K+)
T1 sequence (Q62296 210-427): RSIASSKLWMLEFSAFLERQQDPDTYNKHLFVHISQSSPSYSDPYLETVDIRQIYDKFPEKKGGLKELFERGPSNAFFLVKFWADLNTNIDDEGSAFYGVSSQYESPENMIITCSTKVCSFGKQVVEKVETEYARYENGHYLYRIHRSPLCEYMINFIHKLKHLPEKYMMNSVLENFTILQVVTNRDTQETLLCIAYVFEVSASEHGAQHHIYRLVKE
Protocol: (§1) Sensor chips Series S CM5 (Research grade) were obtained from GE Healthcare. Prior to use, the sensor chips were equilibrated at room temperature for 15 min to prevent water condensation on the detector side of the sensor chip surface. A running buffer was prepared composed of 10 mM HEPES, 150 mM NaCl, and 0.05% (w/v) Tween-20, pH 7.4, and the system was equilibrated at 20 °C using a flow rate of 30 µL min^−1 after docking of the sensor chip. Ligand binding experiments have been performed applying the concept of multi-cycle kinetics. A contact time of 45 s was selected, followed by a 6-min dissociation phase to allow for complete dissociation of the analyte prior to the next cycle. […] Typically, seven concentrations of the analytes have been examined applying a threefold dilution pattern with 30 µM as top concentration. For the analysis, five running buffer blanks were injected to equilibrate the instrument. […] The carboxyl-dextran surface was activated for 7 min with 0.05 M NHS and 0.2 M EDC, followed by an injection of the proteins in 10 mM MES pH 6.4 at a concentration of 30–50 µg mL^−1. […] This was followed by a deactivation of the residual esters by injecting a solution of 0.5 M ethanolamine pH 8.0 for 7 min before engaging in ligand binding experiments. Reference surfaces were prepared accordingly, omitting the injection of protein over the activated reference surface.

GST-hTEAD1 = biological target: T2, GST-hTEAD1 (Homo sapiens, UniProt P28347); experiment: SPR binding to immobilised GST-hTEAD1; details: GST-hTEAD1 amine-coupled on CM5, multi-cycle, steady-state fit 1:1 model, 10 mM HEPES 150 mM NaCl 0.05% Tween-20 pH 7.4, 0.3% DMSO, 20 °C, Fig. 1 values n = 1 replicate
T2 construct: CDNA of hTEAD1(209–426) fused with an N-terminal GST tag; made in house; host or cells: Escherichia coli BL21 DE3 RIL(K+)
T2 sequence (P28347 209-426): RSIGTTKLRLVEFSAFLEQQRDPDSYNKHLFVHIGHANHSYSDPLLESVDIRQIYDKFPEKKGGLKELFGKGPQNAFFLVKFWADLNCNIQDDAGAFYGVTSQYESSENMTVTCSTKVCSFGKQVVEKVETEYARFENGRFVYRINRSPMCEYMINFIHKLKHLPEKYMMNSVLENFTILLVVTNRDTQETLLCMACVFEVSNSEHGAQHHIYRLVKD
Protocol: as §1

RKO cells [1] = experiment: Sub-cellular (cytoplasmic, nuclear) peptide concentration in RKO cells by UPLC-MS; details: for Sub-cellular drug content, Cytoplasm, Measured concentration / Sub-cellular drug content, Cytoplasm, nMol / Sub-cellular drug content, Nuclear, Measured concentration / Sub-cellular drug content, Nuclear, nMol / Sub-cellular drug content, Cytoplasm, pMol.mg-1 / Sub-cellular drug content, Nuclear, pMol.mg-1: 25 µM compound, n = 2; for Sub-cellular drug content, Cytoplasm, pMol.mg-1 / Sub-cellular drug content, Nuclear, pMol.mg-1: per mg protein; for Cytoplasmic concentration of peptide: cytoplasmic fraction; for Nuclear concentration of peptide: nuclear fraction; for Cytoplasmic concentration, raw data / Nuclear concentration, raw data: sheet Figure 3c, 25 µM unlabelled peptide; for Intracellular concentration: mass spectrometry
Protocol: (§2) Peptides were incubated in RKO cells (ATCC, #CRL-2577) as follows: Experiment 1: RKO cells were incubated in 25 µM compound for 90 min and 24 h. Experiment 2: RKO cells were incubated in 25 µM for 30 min or 72 h. Following peptide incubation, the cells were washed twice with PBS, trypsinized and pelleted. The pellets were lysed in RIPA buffer (Perkin Elmer) for total lysis, or CelLytic NuCLEAR Extraction Kit (SIGMA) for subcellular fractionation. Total protein quantification BCA (Pierce) was performed prior to MS analysis to normalize sample data. Total and fractionated cell lysates were analysed by quantitative UPLC-MS utilizing a Waters Xevo TQ-XS (WBA0259) and an Acquity UPLC system from Waters consisting of Sample Manager (M16UFL953M), Acquity PDA (F17UPD457A), Column Oven (E17CMP703G) and Binary Solvent Manager (E17BUR621G). […] Chromatograms of the samples were treated similarly, and by linear regression (1/x) an in-cell concentration was established in the re-suspended cell lysate using the Waters MassLynx TargetLynx^TM product.

RKO cells [2] = experiment: Total drug content in RKO cells by UPLC-MS; details: 25 µM compound; for Total drug content, Measured Concentration: RIPA total lysis, diluted lysate; for Total drug content, Measured Concentration / Total drug content / Measured Conc: UPLC-MS; for Total drug content, Measured Concentration / Total drug content: n = 2; for Total drug content: total lysis
Protocol: as §2

[3] = 90 minutes, fractionation, UPLC-MS
[4] = 24 hours, fractionation, UPLC-MS

CC[C@H](C)[C@@H]1NC(=O)[C@H](CCC(N)=O)NC(=O)[C@H](CC(C)C)NC(=O)[C@H](Cc2c[nH]c3ccccc23)NC(=O)[C@H]([C@@H](C)O)NC(=O)[C@H](CC(=O)O)NC(=O)CNC(=O)[C@H](CC(C)C)NC(=O)[C@H](C)NC(=O)[C@H](CCCCN)NC(=O)[C@H](C)NC(=O)[C@H](Cc2ccccc2)NC(=O)[C@H](Cc2c[nH]cn2)NC(=O)[C@H](CC(=O)O)NC(=O)[C@@H](NC(=O)[C@@H](NC(=O)[C@H](CO)NC(C)=O)C(C)C)CC(=O)NCC[C@@H](C(=O)N[C@@H](C)C(=O)N[C@@H](C)C(N)=O)NC1=O [4A] (Ac-SVDDHFAKALGDTWLQI[Dab]AA-NH2; lactam 3-18)
Kd (mTEAD4): 11000 nM

CC[C@H](C)[C@@H]1NC(=O)[C@H](CCC(N)=O)NC(=O)[C@H](CC(C)C)NC(=O)[C@H](Cc2c[nH]c3ccccc23)NC(=O)[C@H]([C@@H](C)O)NC(=O)[C@H](CC(=O)O)NC(=O)CNC(=O)[C@H](CC(C)C)NC(=O)[C@H](C)NC(=O)[C@H](CCCCN)NC(=O)[C@H](C)NC(=O)[C@H](Cc2ccccc2)NC(=O)[C@H](Cc2c[nH]cn2)NC(=O)[C@H](CC(=O)O)NC(=O)[C@@H](NC(=O)[C@@H](NC(=O)[C@H](CO)NC(C)=O)C(C)C)CC(=O)NCCC[C@@H](C(=O)N[C@@H](C)C(=O)N[C@@H](C)C(N)=O)NC1=O [4B] (Ac-SVDDHFAKALGDTWLQI[Orn]AA-NH2; lactam 3-18)
Kd (mTEAD4): 11000 nM

CC[C@H](C)[C@@H]1NC(=O)[C@H](CCC(N)=O)NC(=O)[C@H](CC(C)C)NC(=O)[C@H](Cc2c[nH]c3ccccc23)NC(=O)[C@H]([C@@H](C)O)NC(=O)[C@H](CC(=O)O)NC(=O)CNC(=O)[C@H](CC(C)C)NC(=O)[C@H](C)NC(=O)[C@H](CCCCN)NC(=O)[C@H](C)NC(=O)[C@H](Cc2ccccc2)NC(=O)[C@H](Cc2c[nH]cn2)NC(=O)[C@H](CC(=O)O)NC(=O)[C@@H](NC(=O)[C@@H](NC(=O)[C@H](CO)NC(C)=O)C(C)C)CC(=O)NCCCC[C@@H](C(=O)N[C@@H](C)C(=O)N[C@@H](C)C(N)=O)NC1=O [4C] (Ac-SVDDHFAKALGDTWLQIKAA-NH2; lactam 3-18)
Kd (mTEAD4): 3200 nM

CC[C@H](C)[C@@H]1NC(=O)[C@H](CCC(N)=O)NC(=O)[C@H](CC(C)C)NC(=O)[C@H](Cc2c[nH]c3ccccc23)NC(=O)[C@H]([C@@H](C)O)NC(=O)[C@H](CC(=O)O)NC(=O)CNC(=O)[C@H](CC(C)C)NC(=O)[C@H](C)NC(=O)[C@H](CCCCN)NC(=O)[C@H](C)NC(=O)[C@H](Cc2ccccc2)NC(=O)[C@H](Cc2c[nH]cn2)NC(=O)[C@H](CC(=O)O)NC(=O)[C@@H](NC(=O)[C@@H](NC(=O)[C@H](CO)NC(C)=O)C(C)C)CCC(=O)NCCC[C@@H](C(=O)N[C@@H](C)C(=O)N[C@@H](C)C(N)=O)NC1=O [4D] (Ac-SVEDHFAKALGDTWLQI[Orn]AA-NH2; lactam 3-18)
Kd (GST-hTEAD1): 1500 nM

CC[C@H](C)[C@H](NC(=O)[C@H](CCC(N)=O)NC(=O)[C@H](CC(C)C)NC(=O)[C@H](Cc1c[nH]c2ccccc12)NC(=O)[C@@H](NC(=O)[C@H](CC(=O)O)NC(=O)CNC(=O)[C@H](CC(C)C)NC(=O)[C@H](C)NC(=O)[C@H](CCCCN)NC(=O)[C@H](C)NC(=O)[C@H](Cc1ccccc1)NC(=O)[C@H](Cc1c[nH]cn1)NC(=O)[C@H](CC(=O)O)NC(=O)[C@H](CC(=O)O)NC(=O)[C@@H](NC(=O)[C@H](CO)NC(C)=O)C(C)C)[C@@H](C)O)C(=O)N[C@@H](CCCCN)C(=O)N[C@@H](C)C(=O)N[C@@H](C)C(N)=O [compound 4] (Ac-SVDDHFAKALGDTWLQIKAA-NH2)
Sub-cellular drug content, Cytoplasm, Measured concentration (RKO cells [1]; [3]): < LLOQ
Sub-cellular drug content, Cytoplasm, nMol (RKO cells [1]; [3]): < LLOQ
Sub-cellular drug content, Nuclear, Measured concentration (RKO cells [1]; [3]): < LLOQ
Sub-cellular drug content, Nuclear, nMol (RKO cells [1]; [3]): < LLOQ
Sub-cellular drug content, Cytoplasm, pMol.mg-1 (RKO cells [1]; [3]): < LLOQ
Sub-cellular drug content, Nuclear, pMol.mg-1 (RKO cells [1]; [3]): < LLOQ
Sub-cellular drug content, Cytoplasm, Measured concentration (RKO cells [1]; [4]): < LLOQ
Sub-cellular drug content, Cytoplasm, nMol (RKO cells [1]; [4]): < LLOQ
Sub-cellular drug content, Nuclear, Measured concentration (RKO cells [1]; [4]): < LLOQ
Sub-cellular drug content, Nuclear, nMol (RKO cells [1]; [4]): < LLOQ
Sub-cellular drug content, Cytoplasm, pMol.mg-1 (RKO cells [1]; [4]): < LLOQ
Sub-cellular drug content, Nuclear, pMol.mg-1 (RKO cells [1]; [4]): < LLOQ
Cytoplasmic concentration of peptide (RKO cells [1]; UPLC-MS, raw data replicate 1): <LLOQ
Cytoplasmic concentration of peptide (RKO cells [1]; UPLC-MS, raw data replicate 2): <LLOQ
Nuclear concentration of peptide (RKO cells [1]; UPLC-MS, raw data replicate 1): <LLOQ
Nuclear concentration of peptide (RKO cells [1]; UPLC-MS, raw data replicate 2): <LLOQ
Cytoplasmic concentration, raw data (RKO cells [1]; UPLC-MS, replicate 1): <LLOQ
Nuclear concentration, raw data (RKO cells [1]; UPLC-MS, replicate 1): <LLOQ
Cytoplasmic concentration, raw data (RKO cells [1]; UPLC-MS, replicate 2): <LLOQ
Nuclear concentration, raw data (RKO cells [1]; UPLC-MS, replicate 2): <LLOQ
Detection in cytoplasmic and nuclear fractions (RKO cells [1]; unlabelled peptide 25 µM, 90 min and 24 h, fractionation, UPLC-MS): not detected in subcellular fractions
Intracellular concentration (RKO cells [1]; unlabelled peptide 25 µM, 90 min incubation, n = 2 biological replicates): < LLOQ
Intracellular concentration (RKO cells [1]; unlabelled peptide 25 µM, 24 hours incubation, N = 2 biological replicates): < LLOQ
Total drug content, Measured Concentration (RKO cells [2]; 90 minutes): 1133.521 ± 133.393 nM
Total drug content (RKO cells [2]; 90 minutes): 1.7 ± 0.2001 nmol
Total drug content, Measured Concentration (RKO cells [2]; 24 hours): 322.145 ± 33.657 nM
Total drug content (RKO cells [2]; 24 hours): 0.4832 ± 0.05049 nmol
Measured Conc (RKO cells [2]; total drug content, 90 minutes, dilution factor 10, replicate 1): 1266.91 nM
Measured Conc (RKO cells [2]; total drug content, 90 minutes, dilution factor 10, replicate 2): 1000.13 nM
pMol/mg of protein, Mean (RKO cells [2]; total drug content, 90 minutes, mean of 2 replicates): 1685.1 pMol/mg of protein
Measured Conc (RKO cells [2]; total drug content, 24 hours, dilution factor 10, replicate 1): 355.802 nM
Measured Conc (RKO cells [2]; total drug content, 24 hours, dilution factor 10, replicate 2): 288.488 nM
pMol/mg, Mean (RKO cells [2]; total drug content, 24 hours, mean of 2 replicates): 331.25 pMol/mg

CC[C@H](C)[C@@H]1NC(=O)[C@H](CCC(N)=O)NC(=O)[C@H](CC(C)C)NC(=O)[C@H](Cc2c[nH]c3ccccc23)NC(=O)[C@H]([C@@H](C)O)NC(=O)[C@H](CC(=O)O)NC(=O)CNC(=O)[C@H](CC(C)C)NC(=O)[C@H](C)NC(=O)[C@H](CCCCN)NC(=O)[C@H](C)NC(=O)[C@H](Cc2ccccc2)NC(=O)[C@H](Cc2c[nH]cn2)NC(=O)[C@H](CC(=O)O)NC(=O)[C@@H](NC(=O)[C@@H](NC(=O)[C@H](C)NC(C)=O)C(C)C)CCC(=O)NCCCC[C@@H](C(=O)N[C@@H](C)C(=O)N[C@@H](C)C(N)=O)NC1=O [compound 14] (Ac-AVEDHFAKALGDTWLQIKAA-NH2; lactam 3-18)
Kd (GST-hTEAD1): 1500 ± 20 nM

CC[C@H](C)[C@@H]1NC(=O)[C@H](CCC(N)=O)NC(=O)[C@H](CC(C)C)NC(=O)[C@H](Cc2c[nH]c3ccccc23)NC(=O)[C@H]([C@@H](C)O)NC(=O)[C@H](CC(=O)O)NC(=O)CNC(=O)[C@H](CC(C)C)NC(=O)[C@H](C)NC(=O)[C@H](CCCCN)NC(=O)[C@H](C)NC(=O)[C@H](Cc2ccccc2)NC(=O)[C@H](Cc2c[nH]cn2)NC(=O)[C@H](CC(=O)O)NC(=O)[C@@H](NC(=O)[C@H](C)NC(=O)[C@H](CO)NC(C)=O)CCC(=O)NCCCC[C@@H](C(=O)N[C@@H](C)C(=O)N[C@@H](C)C(N)=O)NC1=O [compound 15] (Ac-SAEDHFAKALGDTWLQIKAA-NH2; lactam 3-18)
Kd (mTEAD4): 1500 ± 370 nM

CC[C@H](C)[C@@H]1NC(=O)[C@H](CCC(N)=O)NC(=O)[C@H](C)NC(=O)[C@H](Cc2c[nH]c3ccccc23)NC(=O)[C@H]([C@@H](C)O)NC(=O)[C@H](CC(=O)O)NC(=O)CNC(=O)[C@H](CC(C)C)NC(=O)[C@H](C)NC(=O)[C@H](CCCCN)NC(=O)[C@H](C)NC(=O)[C@H](Cc2ccccc2)NC(=O)[C@H](Cc2c[nH]cn2)NC(=O)[C@H](CC(=O)O)NC(=O)[C@@H](NC(=O)[C@@H](NC(=O)[C@H](CO)NC(C)=O)C(C)C)CCC(=O)NCCCC[C@@H](C(=O)N[C@@H](C)C(=O)N[C@@H](C)C(N)=O)NC1=O [compound 24] (Ac-SVEDHFAKALGDTWAQIKAA-NH2; lactam 3-18)
Kd (mTEAD4): 2000 ± 140 nM
